In patent publication US8084621B2, “3-Pyrrolo[b]cyclohexylene-2-dihydroindolinone derivatives and uses thereof” (Jiangsu Simcere Pharmaceutical R&D Co. Ltd., priority 2006, dated 2011):
pIC50: −log10 of the molar value.

Biological target: T1, VEGFR-2 (Homo sapiens, UniProt P35968)
T1 construct: purchased Cell Signaling Technology CO
Assay: Protein kinase activity by ELISA in vitro, VEGFR-2
Format: biochemical
Settings: read-out: IC50 of the VEGF Receptor Kinase
Experimental: An ELISA (Enzyme-Linked Immunosorbent Sandwich Assay) procedure may be used to detect and measure the level of protein tyrosine kinase activity. […] According to the principle of ELISA, a monoclonal antibody can react with phosphorylated substrate specially, so biotin-labeled substrate is binded to streptavidin-coated ELISA plate, and then binded to a HRP-labeled goat anti-mouse antibody. Finally TMB is added for a color reaction and the value of A450-A630 is read by ELISA plate reader. The OD value can reflect the inhibitory activity of the VEGFR-2, PDGFR-β, c-Kit tyrosine kinases etc. treated with the test compounds at the different concentrations. So, the assay may be used to measure the inhibition ratio of the compounds for the tyrosine kinase activity. Similar assays can be designed along the same lines for any PK using techniques well known in the art.
According to the principle of ELISA, a monoclonal antibody can react with phosphorylated substrate specially, so biotin-labeled substrate is binded to streptavidin-coated ELISA plate, and then binded to a HRP-labeled goat anti-mouse antibody. Finally TMB is added for a color reaction and the value of A450-A630 is read by ELISA plate reader. The OD value can reflect the inhibitory activity of the VEGFR-2, PDGFR-β c-Kit tyrosine kinases treated with the test compounds at the different concentrations. So, the assay may be used to measure the inhibition ratio of the compounds for the tyrosine kinase activity. Similar assays can be designed along the same lines for any PK using techniques well known in the art.
VEGF Receptor 2, PDGF Receptor-beta and c-kit kinase assay kit (include kinase, 1.25M DTT, substrate peptide, 10 mM ATP, P-Tyr-100 Mouse antibody, 4×HTScan tyrosine kinase buffer), Cell Signaling Technology CO.; HRP labeled goat anti mouse IgG, Protein Tech CO.; TMB, Pierce CO.; Streptavidin Microtitration Plate, Greiner Bio-one CO.; Infinite M200 Reader, Tecan CO.
1.2.1 Immediately transfer enzyme from −80° C. to ice. Allow enzyme to thaw on ice then at 4° C. and centrifugate transiently to the bottom of centrifuge tube, then lay back on ice quickly
1.2.2 Add 10 μl of DTT (1.25 M) to 2.5 ml of 4×HTScan tyrosine kinase buffer (240 mM HEPES pH 7.5, 20 mM MgCl2, 20 mM MnCl2, 12 μM Na3VO4). Transfer 0.6 ml of DTT/Kinase buffer to each enzyme tube to make 4× reaction Cocktail. Incubate 12.5 μl of the 4× reaction cocktail with 12.5 μl/well prediluted compound of interest for 5 minutes at room temperature, and set blank control, free-enzyme control, negative control and positive control. 1.2.3 Add 10 μl 10 mM ATP to 1.25 ml 6 μM substrate peptide. Dilute the mixture with dH20 to 2.5 ml to make 2×ATP/substrate cocktail. Add 25 μl of 2×ATP/substrate cocktail to 25 μl/well preincubated reaction cocktail/compound. Incubate reaction plate at room temperature for 30 minutes. 1.2.4 Add 50 μl/well stop Buffer (50 mM EDTA, pH 8) to stop the reaction. Transfer 25 μl of each reaction and 75 μl dH2O/well to a 96-well streptavidin coated plate and incubate at room temperature for 60 minutes. Wash three times with 200 μl/well PBS/T(1×PBS, 0.05% Tween-20). 1.2.5 Dilute primary antibody, Phospho-Tyrosine mAb (P-Tyr-100), 1:500 in PBS/T with 1% BSA. Add 100 μl/well primary antibody. Incubate at room temperature for 60 minutes. Wash three times with 200 μl/well PBS/T(1×PBS, 0.05% Tween-20). 1.2.6 Prepare appropriate dilution of HRP labeled secondary antibody, 1:500 in PBS/T with 1% BSA. Add 100 μl/well secondary antibody solution. Incubate at room temperature for 30 minutes. Wash five times with 200 μl/well PBS/T 1.2.7 Add 100 μl/well TMB substrate and incubate at room temperature for 1-10 minutes. Add 50 μl 2M H2SO4 to stop the color reaction. Read the absorbance of A450-A630 with the Infinite M200 microtiter plate reader. 1.2.8 Calculate the inhibition ratio with the following formula: […]

T1 sequence (P35968 20-1356): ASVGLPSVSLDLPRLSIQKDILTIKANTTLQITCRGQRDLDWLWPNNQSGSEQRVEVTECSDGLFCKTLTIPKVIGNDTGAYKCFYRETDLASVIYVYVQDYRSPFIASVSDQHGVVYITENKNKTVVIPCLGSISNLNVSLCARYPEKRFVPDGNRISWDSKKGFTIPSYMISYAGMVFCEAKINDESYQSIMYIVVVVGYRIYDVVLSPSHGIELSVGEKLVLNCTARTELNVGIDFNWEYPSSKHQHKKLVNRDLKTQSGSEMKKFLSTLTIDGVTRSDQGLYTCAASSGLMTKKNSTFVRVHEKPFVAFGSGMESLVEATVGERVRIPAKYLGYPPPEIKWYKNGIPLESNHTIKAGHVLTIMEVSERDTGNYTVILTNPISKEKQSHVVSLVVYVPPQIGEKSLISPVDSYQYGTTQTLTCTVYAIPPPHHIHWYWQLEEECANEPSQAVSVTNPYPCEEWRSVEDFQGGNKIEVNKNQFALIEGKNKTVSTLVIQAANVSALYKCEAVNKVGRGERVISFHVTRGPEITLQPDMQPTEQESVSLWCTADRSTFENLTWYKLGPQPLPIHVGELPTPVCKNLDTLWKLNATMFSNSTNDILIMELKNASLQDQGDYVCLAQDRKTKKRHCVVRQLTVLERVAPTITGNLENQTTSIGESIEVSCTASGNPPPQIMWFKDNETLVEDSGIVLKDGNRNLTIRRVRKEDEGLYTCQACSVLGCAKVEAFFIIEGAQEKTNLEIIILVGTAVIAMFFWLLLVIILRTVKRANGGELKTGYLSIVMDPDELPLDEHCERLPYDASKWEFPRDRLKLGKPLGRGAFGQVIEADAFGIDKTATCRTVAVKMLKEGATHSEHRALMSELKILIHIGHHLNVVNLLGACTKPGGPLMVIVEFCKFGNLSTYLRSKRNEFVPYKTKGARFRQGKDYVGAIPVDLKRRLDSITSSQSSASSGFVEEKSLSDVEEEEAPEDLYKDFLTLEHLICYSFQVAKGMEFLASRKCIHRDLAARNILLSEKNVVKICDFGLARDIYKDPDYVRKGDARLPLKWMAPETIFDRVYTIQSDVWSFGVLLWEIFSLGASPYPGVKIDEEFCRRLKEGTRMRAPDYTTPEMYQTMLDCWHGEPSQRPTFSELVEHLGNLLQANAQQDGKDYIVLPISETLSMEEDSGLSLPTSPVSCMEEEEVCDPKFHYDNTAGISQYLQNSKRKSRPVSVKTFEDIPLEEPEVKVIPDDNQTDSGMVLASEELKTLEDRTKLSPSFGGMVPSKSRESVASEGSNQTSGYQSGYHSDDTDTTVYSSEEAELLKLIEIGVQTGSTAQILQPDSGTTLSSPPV

Row | pIC50 | SMILES
1 | 8.10 | CCN(CC)CCNC(=O)c1c(C)[nH]c2c1CCC/C2=C1/C(=O)Nc2ccc(NC(C)=O)cc21 [I-45]
2 | 7.96 | CCN(CC)CCNC(=O)c1c(C)[nH]c2c1CCC/C2=C1/C(=O)Nc2cc(Cl)ccc21 [I-46, N-(2-(diethylamino)ethyl)-2-methyl-7-[1,2-dihydro-6-chloro-2-oxo-3H-indol-(Z)-3-ylidene]-4,5,6,7-tetrahydro-1H-indole-3-carboxamide]
3 | 7.85 | Cc1[nH]c2c(c1C(=O)N1CCC[C@H]1CN1CCCC1)CCC/C2=C1/C(=O)Nc2ccc(F)cc21 [I-60]
4 | 7.51 | Cc1[nH]c2c(c1C(=O)NCCN1CCOCC1)CCC/C2=C1/C(=O)Nc2ccc(Cl)cc21 [I-19, N-(2-morpholinoethyl)-2-methyl-7-[1,2-dihydro-5-chloro-2-oxo-3H-indol-(Z)-3-ylidene]-4,5,6,7-tetrahydro-1H-indole-3-carboxamide]
5 | 7.57 | Cc1[nH]c2c(c1C(=O)NCCCN1CCOCC1)CCC/C2=C1/C(=O)Nc2ccc(F)cc21 [I-21, N-(3-morpholinopropyl)-2-methyl-7-[1,2-dihydro-5-fluoro-2-oxo-3H-indol-(Z)-3-ylidene]-4,5,6,7-tetrahydro-1H-indole-3-carboxamide]
6 | 7.89 | Cc1[nH]c2c(c1C(=O)N(C)CCN(C)C)CCC/C2=C1/C(=O)Nc2ccc(F)cc21 [I-57, N-(2-(dimethylamino)ethyl)-N,2-dimethyl-7-[1,2-dihydro-5-fluoro-2-oxo-3H-indol-(Z)-3-ylidene]-4,5,6,7-tetrahydro-1H-indole-3-carboxamide]
7 | 8.04 | Cc1[nH]c2c(c1C(=O)NCCN1CCCCC1)CCC/C2=C1/C(=O)Nc2ccc(F)cc21 [I-26, N-(2-(piperidin-1-yl)ethyl)-2-methyl-7-[1,2-dihydro-5-fluoro-2-oxo-3H-indol-(Z)-3-ylidene]-4,5,6,7-tetrahydro-1H-indole-3-carboxamide]
8 | 7.89 | CCN(CC)CCNC(=O)c1c(C)[nH]c2c1CCC/C2=C1/C(=O)Nc2ccc(OC)cc21 [I-53, N-(2-(diethylamino)ethyl)-2-methyl-7-[1,2-dihydro-5-methoxy-2-oxo-3H-indol-(Z)-3-ylidene]-4,5,6,7-tetrahydro-1H-indole-3-carboxamide]
9 | 7.92 | CCN(CC)CCNC(=O)c1c(C)[nH]c2c1CCC/C2=C1/C(=O)Nc2cccc(F)c21 [I-49, N-(2-(diethylamino)ethyl)-2-methyl-7-[1,2-dihydro-4-fluoro-2-oxo-3H-indol-(Z)-3-ylidene]-4,5,6,7-tetrahydro-1H-indole-3-carboxamide]
10 | 7.09 | CCN(CC)CCNC(=O)c1c(C)[nH]c2c1CCC/C2=C1/C(=O)Nc2c(F)cccc21 [I-40, N-(2-(diethylamino)ethyl)-2-methyl-7-[1,2-dihydro-7-fluoro-2-oxo-3H-indol-(Z)-3-ylidene]-4,5,6,7-tetrahydro-1H-indole-3-carboxamide]
11 | 8.17 | CCN(CC)CCNC(=O)c1c(C)[nH]c2c1CCC/C2=C1/C(=O)Nc2ccc(C(=O)O)cc21 [I-44, N-(2-(diethylamino)ethyl)-2-methyl-7-[1,2-dihydro-5-carboxyl-2-oxo-3H-indol-(Z)-3-ylidene]-4,5,6,7-tetrahydro-1H-indole-3-carboxamide]
12 | 7.72 | CCN(CC)CCNC(=O)c1c(C)[nH]c2c1CCC/C2=C1/C(=O)Nc2ccc(S(=O)(=O)NC)cc21 [I-55, N-(2-(diethylamino)ethyl)-2-methyl-7-[N-methyl-1,2-dihydro-2-oxo-3H-indol-5-sulfonamide-(Z)-3-ylidene]-4,5,6,7-tetrahydro-1H-indole-3-carboxamide]
13 | 7.77 | Cc1[nH]c2c(c1C(=O)NCCc1ccccn1)CCC/C2=C1/C(=O)Nc2ccc(F)cc21 [I-56, N-(2-(pyridin-2-yl)ethyl)-2-methyl-7-[1,2-dihydro-5-fluoro-2-oxo-3H-indol-(Z)-3-ylidene]-4,5,6,7-tetrahydro-1H-indole-3-carboxamide]
14 | 7.96 | CCN(CC)CCNC(=O)c1c(C)[nH]c2c1CCC/C2=C1/C(=O)Nc2c(C)cc(C)cc21 [I-34, N-(2-(diethylamino)ethyl)-2-methyl-7-[1,2-dihydro-5,7-dimethyl-2-oxo-3H-indol-(Z)-3-ylidene]-4,5,6,7-tetrahydro-1H-indole-3-carboxamide]
15 | 7.27 | CCN(CC)CCNC(=O)c1c(C)[nH]c2c1CCC/C2=C1/C(=O)Nc2ccc(C(=O)Nc3ccc(F)cc3)cc21 [I-51, N-(2-(diethylamino)ethyl)-2-methyl-7-[N-(4-fluorophenyl)-5-carboxamide-1,2-dihydro-2-oxo-3H-indol-(Z)-3-ylidene]-4,5,6,7-tetrahydro-1H-indole-3-carboxamide]
16 | 8.20 | CCN(CC)CCNC(=O)c1c(C)[nH]c2c1CCC/C2=C1/C(=O)Nc2ccc(Br)cc21 [I-36, N-(2-(diethylamino)ethyl)-2-methyl-7-[1,2-dihydro-5-bromo-2-oxo-3H-indol-(Z)-3-ylidene]-4,5,6,7-tetrahydro-1H-indole-3-carboxamide]
